Tests used:
[1] = biological target: human serotonin 5-HT6 receptor (Homo sapiens, UniProt P50406); assay: [3H]LSD binding assay for cloned 5-HT6 receptors
Sequence of human serotonin 5-HT6 receptor (P50406 whole entry): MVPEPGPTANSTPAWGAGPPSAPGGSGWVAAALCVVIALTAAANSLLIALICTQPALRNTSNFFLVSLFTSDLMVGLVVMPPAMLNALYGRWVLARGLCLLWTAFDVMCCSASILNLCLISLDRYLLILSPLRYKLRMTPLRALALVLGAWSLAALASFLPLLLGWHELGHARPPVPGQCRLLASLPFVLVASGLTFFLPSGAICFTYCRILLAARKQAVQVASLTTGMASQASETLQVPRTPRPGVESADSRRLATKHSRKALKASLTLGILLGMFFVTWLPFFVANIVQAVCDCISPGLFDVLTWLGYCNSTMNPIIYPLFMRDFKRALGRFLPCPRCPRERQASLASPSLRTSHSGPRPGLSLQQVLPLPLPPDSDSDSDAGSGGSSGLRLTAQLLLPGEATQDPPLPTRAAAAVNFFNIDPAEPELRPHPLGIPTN

CCn1c(=O)c2c(N3CCN(C)CC3)cc(Cl)cc2n(Cc2ccccc2)c1=O [Example 2, 1-benzyl-7-chloro-3-ethyl-5-(4-methyl-piperazin-1-yl)-1H-quinazoline-2,4-dione]
IC50 [1]: 3.1 nM | melting point: 155 to 159 °C

CCCCn1c(=O)c2c(N3CCN(C)CC3)cc(Cl)cc2n(Cc2ccccc2)c1=O [Example 4, 1-benzyl-3-butyl-7-chloro-5-(4-methyl-piperazin-1-yl)-1H-quinazoline-2,4-dione]
IC50 [1]: 2.8 nM

CC(C)CCn1c(=O)c2c(N3CCN(C)CC3)cc(Cl)cc2n(Cc2ccccc2)c1=O [Example 5, 1-benzyl-7-chloro-3-(3-methyl-butyl)-5-(4-methyl-piperazin-1-yl)-1H-quinazoline-2,4-dione]
IC50 [1]: 3.6 nM | melting point: 62 to 68 °C

CN1CCN(c2cc(Cl)cc3c2c(=O)n(CC2CCCCC2)c(=O)n3Cc2ccccc2)CC1 [Example 6, 1-benzyl-7-chloro-3-cyclohexylmethyl-5-(4-methyl-piperazin-1-yl)-1H-quinazoline-2,4-dione]
IC50 [1]: 4.2 nM | melting point: 163 to 169 °C

CN1CCN(c2cc(Cl)cc3c2c(=O)n(-c2ccccc2)c(=O)n3Cc2ccccc2)CC1 [Example 8, 1-benzyl-7-chloro-5-(4-methyl-piperazin-1-yl)-3-phenyl-1H-quinazoline-2,4-dione]
IC50 [1]: 167 nM | melting point: 111 to 119 °C

COc1ccc(-n2c(=O)c3c(N4CCN(C)CC4)cc(Cl)cc3n(Cc3ccccc3)c2=O)cc1 [Example 9, 1-benzyl-7-chloro-3-(4-methoxy-phenyl)-5-(4-methyl-piperazin-1-yl)-1H-quinazoline-2,4-dione]
IC50 [1]: 12.4 nM | melting point: 155 to 158 °C

CN1CCN(c2cc(Cl)cc3c2c(=O)n(Cc2cccc(Br)c2)c(=O)n3Cc2ccccc2)CC1 [Example 15, 1-benzyl-3-(3-bromo-benzyl)-7-chloro-5-(4-methyl-piperazin-1-yl)-1H-quinazoline-2,4-dione]
IC50 [1]: 2.7 nM | melting point: 154 to 157 °C

CN1CCN(c2cc(Cl)cc3c2c(=O)n(Cc2ccc(Br)cc2)c(=O)n3Cc2ccccc2)CC1 [Example 16, 1-benzyl-3-(4-bromo-benzyl)-7-chloro-5-(4-methyl-piperazin-1-yl)-1H-quinazoline-2,4-dione]
IC50 [1]: 3.3 nM | melting point: 93 to 98 °C

CN1CCN(c2cc(Cl)cc3c2c(=O)n(Cc2ccc(I)cc2)c(=O)n3Cc2ccccc2)CC1 [Example 21, 1-benzyl-7-chloro-3-(4-iodo-benzyl)-5-(4-methyl-piperazin-1-yl)-1H-quinazoline-2,4-dione]
IC50 [1]: 4.7 nM

Cc1cccc(Cn2c(=O)c3c(N4CCN(C)CC4)cc(Cl)cc3n(Cc3ccccc3)c2=O)c1 [Example 23, 1-benzyl-7-chloro-3-(3-methyl-benzyl)-5-(4-methyl-piperazin-1-yl)-1H-quinazoline-2,4-dione]
IC50 [1]: 2.6 nM | melting point: 171 to 175 °C

COc1cccc(Cn2c(=O)c3c(N4CCN(C)CC4)cc(Cl)cc3n(Cc3ccccc3)c2=O)c1 [Example 26, 1-benzyl-7-chloro-3-(3-methoxy-benzyl)-5-(4-methyl-piperazin-1yl)-1H-quinazoline-2,4-dione]
IC50 [1]: 7.9 nM | melting point: 98 to 110 °C

COc1ccc(Cn2c(=O)c3c(N4CCN(C)CC4)cc(Cl)cc3n(Cc3ccccc3)c2=O)cc1 [Example 27, 1-benzyl-7-chloro-3-(4-methoxy-benzyl)-5-(4-methyl-piperazin-1-yl)-1H-quinazoline-2,4-dione]
IC50 [1]: 10.2 nM | melting point: 81 to 89 °C

CN1CCN(c2cc(Cl)cc3c2c(=O)n(Cc2ccccc2O)c(=O)n3Cc2ccccc2)CC1 [Example 28, 1-benzyl-7-chloro-3-(2-hydroxy-benzyl)-5-(4-methyl-piperazin-1-yl)-1H-quinazoline-2,4-dione]
IC50 [1]: 2.5 nM | melting point: 130 to 132 °C

CN1CCN(c2cc(Cl)cc3c2c(=O)n(Cc2cccc(O)c2)c(=O)n3Cc2ccccc2)CC1 [Example 29, 1-benzyl-7-chloro-3-(3-hydroxy-benzyl)-5-(4-methyl-piperazin-1-yl)-1H-quinazoline-2,4-dione]
IC50 [1]: 15 nM | melting point: 234 to 236 °C

CN1CCN(c2cc(Cl)cc3c2c(=O)n(Cc2ccc(O)cc2)c(=O)n3Cc2ccccc2)CC1 [Example 30, 1-benzyl-7-chloro-3-(4-hydroxy-benzyl)-5-(4-methyl-piperazin-1-yl)-1H-quinazoline-2,4-dione]
IC50 [1]: 27 nM | melting point: 138 to 140 °C

CN1CCN(c2cc(Cl)cc3c2c(=O)n(Cc2ccc([N+](=O)[O-])cc2)c(=O)n3Cc2ccccc2)CC1 [Example 33, 1-benzyl-7-chloro-5-(4-methyl-piperazin-1-yl)-3-(4-nitro-benzyl)-1H-quinazoline-2,4-dione]
IC50 [1]: 15.4 nM | melting point: 109 to 113 °C

CN1CCN(c2cc(Cl)cc3c2c(=O)n(Cc2ccccc2N)c(=O)n3Cc2ccccc2)CC1 [Example 34, 3-(2-amino-benzyl)-1-benzyl-7-chloro-5-(4-methyl-piperazin-1-yl)-1H-quinazoline-2,4-dione]
IC50 [1]: 2.5 nM

CN1CCN(c2cc(Cl)cc3c2c(=O)n(Cc2cccc(N)c2)c(=O)n3Cc2ccccc2)CC1 [Example 35, 3-(3-amino-benzyl)-1-benzyl-7-chloro-5-(4-methyl-piperazin-1-yl)-1H-quinazoline-2,4-dione]
IC50 [1]: 40.2 nM | melting point: 260 to 265 °C

CN1CCN(c2cc(Cl)cc3c2c(=O)n(Cc2ccc(N)cc2)c(=O)n3Cc2ccccc2)CC1 [Example 36, 3-(4-amino-benzyl)-1-benzyl-7-chloro-5-(4-methyl-piperazin-1-yl)-1H-quinazoline-2,4-dione]
IC50 [1]: 22.1 nM | melting point: 93 to 96 °C

CN1CCN(c2cc(Cl)cc3c2c(=O)n(Cc2ccc(C#N)cc2)c(=O)n3Cc2ccccc2)CC1 [Example 37, 4-[1-benzyl-7-chloro-5-(4-methyl-piperazin-1-yl)-2,4-dioxo-1,4-dihydro-2H-quinazoline-3-ylmethyl]-benzonitrile]
IC50 [1]: 27.1 nM | melting point: 99 to 105 °C

COC(=O)c1ccc(Cn2c(=O)c3c(N4CCN(C)CC4)cc(Cl)cc3n(Cc3ccccc3)c2=O)cc1 [Example 38, 4-[1-benzyl-7-chloro-5-(4-methyl-piperazin-1-yl)-2,4-dioxo-1,4-dihydro-2H-quinazoline-3-ylmethyl]-benzoic acid methyl ester]
IC50 [1]: 2.7 nM | melting point: 90 to 94 °C

Cc1ccc(Cn2c(=O)c3c(N4CCN(C)CC4)cc(Cl)cc3n(Cc3ccccc3)c2=O)cc1C [Example 39, 1-benzyl-7-chloro-3-(3,4-dimethyl-benzyl)-5-(4-methyl-piperazin-1-yl)-1H-quinazoline-2,4-dione]
IC50 [1]: 5.1 nM | melting point: 96 to 99 °C

CC(C)Cc1cccc(CCCn2c(=O)c3c(N4CCN(C)CC4)cc(Cl)cc3n(Cc3ccccc3)c2=O)c1 [Example 45, 1-benzyl-7-chloro-3-[3-(3-isobutyl-phenyl)-propyl]-5-(4-methyl-piperazin-1-yl)-1H-quinazoline-2,4-dione]
IC50 [1]: 10.5 nM | melting point: 56 to 62 °C

CN1CCN(c2cc(Cl)cc3c2c(=O)n(Cc2cccc4ccccc24)c(=O)n3Cc2ccccc2)CC1 [Example 46, 1-benzyl-7-chloro-5-(4-methyl-piperazin-1-yl)-3-naphthalen-1-ylmethyl-1H-quinazoline-2,4-dione]
IC50 [1]: 3.2 nM | melting point: 75 to 89 °C

CN1CCN(c2cc(Cl)cc3c2c(=O)n(Cc2ccncc2)c(=O)n3Cc2ccccc2)CC1 [Example 48, 1-benzyl-7-chloro-5-(4-methyl-piperazin-1-yl)-3-pyridin-4-ylmethyl-1H-quinazoline-2,4-dione]
IC50 [1]: 33.3 nM | melting point: 94 to 100 °C

CN1CCN(c2cc(Cl)cc3[nH]c(=O)n(Cc4ccccc4)c(=O)c23)CC1 [Example 49, 3-benzyl-7-chloro-5-(4-methyl-piperazin-1-yl)-1H-quinazoline-2,4-dione]
IC50 [1]: > 1000 nM | melting point: 208 to 210 °C

CN1CCN(c2cc(Cl)cc3c2c(=O)n(Cc2ccccc2)c(=O)n3C)CC1 [Example 50, 3-benzyl-7-chloro-1-methyl-5-(4-methyl-piperazin-1-yl)-1H-quinazoline-2,4-dione]
IC50 [1]: > 1000 nM | melting point: 132 to 136 °C

CCn1c(=O)n(Cc2ccccc2)c(=O)c2c(N3CCN(C)CC3)cc(Cl)cc21 [Example 51, 3-benzyl-7-chloro-1-ethyl-5-(4-methyl-piperazin-1-yl)-1H-quinazoline-2,4-dione]
IC50 [1]: 729 nM | melting point: 68 to 75 °C

CCCn1c(=O)n(Cc2ccccc2)c(=O)c2c(N3CCN(C)CC3)cc(Cl)cc21 [Example 52, 3-benzyl-7-chloro-5-(4-methyl-piperazin-1-yl)-1-propyl-1H-quinazoline-2,4-dione]
IC50 [1]: 169 nM

CCCCn1c(=O)n(Cc2ccccc2)c(=O)c2c(N3CCN(C)CC3)cc(Cl)cc21 [Example 53, 3-benzyl-1-butyl-7-chloro-5-(4-methyl-piperazin-1-yl)-1H-quinazoline-2,4-dione]
IC50 [1]: 30.2 nM

O=c1c2c(N3CCNCC3)cc(Cl)cc2n(Cc2ccccc2)c(=O)n1Cc1ccccc1 [Example 57, 1,3-dibenzyl-7-chloro-5-piperazin-1-yl-1H-quinazoline-2,4-dione]
IC50 [1]: 3.4 nM | melting point: 115 to 123 °C

COc1ccccc1Cn1c(=O)c2c(N3CCNCC3)cc(Cl)cc2n(Cc2ccccc2)c1=O [Example 63, 1-benzyl-7-chloro-3-(2-methoxy-benzyl)-5-piperazin-1-yl-1H-quinazoline-2,4-dione]
IC50 [1]: 2.3 nM | melting point: 122 to 125 °C

COc1cccc(Cn2c(=O)c3c(N4CCNCC4)cc(Cl)cc3n(Cc3ccccc3)c2=O)c1 [Example 64, 1-benzyl-7-chloro-3-(3-methyoxy-benzyl)-5-piperazin-1-yl-1H-quinazoline-2,4-dione]
IC50 [1]: 6.4 nM | melting point: 124 to 130 °C

Nc1ccccc1Cn1c(=O)c2c(N3CCNCC3)cc(Cl)cc2n(Cc2ccccc2)c1=O [Example 67, 3-(2-amino-benzyl)-1-benzyl-7-chloro-5-piperazin-1-yl-1H-quinazoline-2,4-dione]
IC50 [1]: 3.6 nM

Source: patent US20090203708A1, “NOVEL SUBSTITUTED-1-H-QUINAZOLINE-2,4-DIONE DERIVATIVES, PREPARATION METHOD THEREOF AND PHARMACEUTICAL COMPOSITION CONTAINING THE SAME” (Korea Research Institute of Chemical Technology, priority 2006, published 2009)
